# Tested on: HSV-1
# Assay: HSV-1 replication in Vero 76 cells, DNA hybridization capture assay
# Assay type: cell-based, herpes simplex virus 1
# Details: Human alphaherpesvirus 1; HSV-1 infected Vero 76 cells, MOI=0.001, 40–48 hours incubation, viral DNA detected by hybridization/chemiluminescence
# Description: Vero 76 cells were maintained in MEM with Earle's salts, L-glutamine, 8% FBS (Hyclone, A-1111-L) and 100 units/mL Penicillin-100 μg/mL Streptomycin. For assay conditions, FBS was reduced to 2%. Cells are seeded into 96-well tissue culture plates at a density of 5×10^4 cells/well after being incubated for 45 min at 37° C. in the presence of HSV-1 or HSV-2 (MOI=0.001). Test compounds are added to the wells and the plates are incubated at 37° C. for 40–48 hours. Cell lysates are prepared as follows: media was removed and replaced with 150 μL/well 0.2 N NaOH with 1% Igepal CA 630 or NP-40. Plates were incubated up to 14 days at room temperature in a humidified chamber to prevent evaporation.
# For the detection probe, a gel-purified, digoxigenin-labeled, 710-bp PCR fragment of the HSV UL-15 sequence was utilized. PCR conditions included 0.5 μM primers, 180 μM dTTP, 20 μM dUTP-digoxigenin (Boehringer Mannheim 1558706), 200 μM each of dATP, dCTP, and dGTP, 1×PCR Buffer II (Perkin Elmer), 2.5 mM MgCl2, 0.025 units/μL of AmpliTaq Gold polymerase (Perkin Elmer), and 5 ng of gel-purified HSV DNA per 100 μL Extension conditions were 10 min at 95° C., followed by 30 cycles of 95° C. for 1 min, 55° C. for 30 sec, and 72° C. for 2 min. The amplification was completed with a 10-min incubation at 72° C. Primers were selected to amplify a 728 bp probe spanning a section of the HSV1 UL15 open reading frame (nucleotides 249–977). Single-stranded transcripts were purified with Promega M13 Wizard kits. The final product was mixed 1:1 with a mixture of 6 M GuSCN, 100 mM EDTA and 200 μg/mL herring sperm DNA and stored at 4° C.
# The capture DNA plasmid (HSV UL13 region in pUC) was linearized by cutting with Xba I, denatured for 15 min at 95° C. and diluted immediately into Reacti-Bind DNA Coating Solution (Pierce, 17250, diluted 1:1 with TE buffer, pH 8) at 1 ng/μL 75 μL/well were added to Corning (#3922 or 9690) white 96-well plates and incubated at room temperature for at least 4 hrs before washing twice with 300 μL/well 0.2×SSC/0.05% Tween-20 (SSC/T buffer). The plates were then incubated overnight at room temperature with 150 μL/well 0.2 N NaOH, 1% IGEPAL and 10 μg/mL herring sperm DNA.
# Twenty-seven (27) μL of cell lysate was combined with […] of hybridization solution (final concentration: 3M GuSCN, 50 mM EDTA, 100 μg/ml salmon sperm DNA, 5× Denhardt's solution, 0.25×APE, and 5 ng of the digoxigenin-labeled detection probe). APE is 1.5 M NH4-acetate, 0.15 M ammonium phosphate monobasic, and 5 mM EDTA adjusted to pH 6.0. Mineral oil (50 μL) was added to prevent evaporation. The hybridization plates were incubated at 95° C. for 10 minutes to denature the DNA, then incubated at 42° C. overnight. The wells were washed 6× with 300 μL/well SSC/T buffer then incubated with […] anti-digoxigenin-HRP-conjugated antibody (Boehringer Mannheim 1207733, 1:5000 in TE) for 30 min at room temperature. The wells were washed 6× with 300 μL/well with PBS/0.05% Tween-20 before 75 μL/well SuperSignal LBA substrate (Pierce) was added. The plates were incubated at room temperature for 30 minutes and chemiluminescence was measured in a Wallac Victor reader.
row,Compound,IC50
1,"Cc1ccc(-c2nc3c(NC4CCCC4)cccn3c2-c2ccnc(Nc3ccccc3)n2)cc1 [Example 4, 3-(2-Anilino-4-pyrimidinyl)-N-cyclopentyl-2-(4-methylphenyl)imidazo[1,2-α]pyridin-8-amine]",3540 nM
2,"Cc1ccc(-c2nc3c(Cl)cccn3c2-c2ccnc(Nc3ccccc3)n2)cc1 [Example 3, 4-[8-Chloro-2-(4-methylphenyl)imidazo[1,2-α]pyridin-3-yl]-N-phenylpyrimidin-2-amine]",3520 nM

# Molecules with a lower IC50, results first:
row,IC50,Compound
1,2230 nM,"O=[N+]([O-])c1cccc(-c2nc3c(Cl)cccn3c2-c2ccnc(Nc3ccc(F)cc3)n2)c1 [Example 5, 4-[8-Chloro-2-(3-nitrophenyl)imidazo[1,2-α]pyridin-3-yl]-N-(4-fluorophenyl)pyrimidin-2-amine]"
2,1460 nM,"COc1cccc(-c2nc3c(Cl)cccn3c2-c2ccnc(Nc3ccccc3)n2)c1 [Example 1, 4-[8-Chloro-2-(3-methoxyphenyl)imidazo[1,2-α]pyridin-3-yl]-N-phenylpyrimidin-2-amine]"
3,350 nM,"COc1cccc(-c2nc3c(NC4CCCC4)cccn3c2-c2ccnc(NC3CCCC3)n2)c1 [Example 2, N-Cyclopentyl-3-[2-(cyclopentylamino)-4-pyrimidinyl]-2-(3-methoxyphenyl)imidazo[1,2-α]pyridin-8-amine]"

# Reference: US7244740B2, “Imidazo-pyridine derivatives for use in the treatment of herpes viral infection” (SmithKline Beecham Corporation, priority 2001, dated 2007)
